{"source": "patent US7329782B2", "about": "“Compounds for the treatment of metabolic disorders” (Wellstat Therapeutics Corporation, priority 2001, dated 2008)", "key": {"[1]": {"system": "ob/ob mice", "from_the_text": "Male lean (ob/+ heterozygote) and obese (ob/ob homozygote) C57BL/6 mice approximately 8 weeks of age were obtained from Jackson Labs (Bar Harbor, Me.) and randomly assigned into groups of 5 animals such that body weights and blood glucose concentrations were similar between groups. […] Blood glucose was routinely determined with glucose test strips and a Glucometer Elite XL device (Bayer Corporation). At selected time points, blood samples (˜100 microliters) were obtained with a heparinized capillary tube via the retro-orbital sinus for serum chemistry analysis.\nThe dose ranges of compounds in this experiment were chosen to include both suboptimal and potentially supraoptimal doses."}, "[2]": {"system": "ob/ob mice", "assay": "Acute hypoglycemic effect in ob/ob obese diabetic mice, Expt 2 (Example G)", "type": "in vivo", "conditions": "Mus musculus, single oral dose 250 mg/kg, 6 hours, read-out: % Reduction vs Control", "procedure": "Male ob/ob mice (50-55 grams; blood glucose ˜300 mg/dL) were divided into groups of five animals each, and given a single oral dose of test drug (250 mg/kg) suspended in 0.5% carboxymethylcellulose vehicle; a control group received oral vehicle alone. Six hours after oral administration of test drugs or vehicle (control), blood samples were obtained from a tail vein and glucose content was determined with a glucometer."}, "[3]": {"system": "mice challenged with multiple high doses of STZ", "assay": "Mortality in severe insulin-dependent diabetes, multiple high doses of STZ (Example C)", "type": "in vivo, balb/C mice", "conditions": "STZ 75 mg/kg i.p. x 5 days, oral 30 mg/kg/day, after three weeks of daily treatment, 20 mice/group", "procedure": "Female balb/C mice (19 wks of age at start of experiment) were challenged with multiple high doses of STZ (75 mg/kg i.p. on 5 consecutive days). Animals were then divided in two groups (20 mice/group) matched for severity of diabetes. Four days after the last dose of STZ, treatments were initiated. One group received Vehicle (0.4 ml of 0.75% HPMC, p.o.), and the other group received oral COMPOUND AA (30 mg/kg/day). After three weeks of daily treatment, cumulative mortality in the Vehicle Control group was 19/20 mice. In contrast, only 5/20 of the COMPOUND AA mice died during this time."}, "[4]": {"system": "high fat-fed C57B1/6J mice", "assay": "Circulating triglycerides, free fatty acids, insulin and leptin in high fat-fed C57B1/6J mice (Example L)", "type": "in vivo", "conditions": "oral gavage, after 4 weeks of drug treatment", "source_text": "The high fat-fed mouse is a model for the hypertriglyceridemia and high circulating fatty acid levels, and the insulin and leptin resistance that are found in people at risk for and with obesity, diabetes, cardiovascular disease and other disorders. Male C57B1/6J mice, approximately 8 weeks of age, were randomly assigned into groups of 6 animals. […] Mice were fed a high-fat diet (diet number D12451, containing 45% of calories as fat (Research Diets, New Brunswick, N.J.)) for 6 weeks. […]"}, "[5]": {"system": "high fat-fed Sprague Dawley rats", "assay": "Circulating glucose, insulin, triglycerides and free fatty acids in high fat-fed Sprague Dawley rats (Example M)", "type": "in vivo", "conditions": "at all doses (10, 30 and 100 mg/kg)", "procedure": "All animals were maintained in a temperature-controlled (25° C.) facility with a strict 12 h light/dark cycle and were given free access to water and food. Rats were fed a high-fat diet (diet number D12451 (containing 45% of calories as fat), Research Diets, New Brunswick, N.J.) for one month prior to drug treatment.\nAt the indicated time points, blood samples (˜100 μl) were obtained via the tail vein for serum chemistry analysis."}, "[6]": {"system": "mice with severe insulin-dependent diabetes induced by streptozotocin", "assay": "Survival of mice with lethal insulin-dependent diabetes, single dose of streptozotocin (Example B)", "type": "in vivo, Balb/C mice", "procedure": "Female Balb/C mice (14 weeks old) were treated with a single dose of streptozotocin (175 mg/kg i.p.) to induce severe insulin-dependent diabetes. Seven days later, mice were divided into three treatment groups: Compound AH, pioglitazone, and vehicle. Mice were treated daily via oral gavage, and survival was monitored over time."}, "[7]": {"system": "streptozotocin diabetic mice", "assay": "Streptozotocin diabetic mice treated with oral Compound AH for 14 weeks (Example A)", "type": "in vivo, Balb/C mice", "conditions": "STZ diabetic mice, 250 mg/kg daily oral, after several weeks of treatment", "procedure": "Streptozotocin (STZ) is a toxin that selectively destroys insulin-producing pancreatic beta cells, and is widely used to induce insulin-dependent diabetes in experimental animals.\nFemale Balb/C mice (8 weeks old; 18-20 grams body weight) were treated with streptozotocin (STZ) (50 mg/kg i.p. on each of five consecutive days). Fourteen days after the last dose of STZ, blood glucose was measured to verify that the animals were diabetic, and the mice were divided into two groups of 5 animals each, one group receiving Compound AH (250 mg/kg) daily by oral gavage, and the other receiving vehicle (0.75% hydroxypropylmethylcellulose, a suspending agent, in water). […] Blood samples were taken periodically for determination of blood glucose concentrations, and body weights were also recorded."}}}
{"smiles": "O=C(O)CCC(=O)c1cccc(OCc2c(F)cccc2F)c1", "note": "[Compound AW, 4-(3-(2,6-Difluorobenzyloxy)phenyl)-4-oxobutyric acid]", "values": [{"measurement": "serum triglycerides and fatty acids", "setting": "[1]; 100 to 300 mg/kg/day, versus comparators at their optimum antihyperglycemic doses", "value": "reduced serum triglycerides and fatty acids better than did either rosiglitazone or pioglitazone"}, {"measurement": "reduction in blood glucose", "setting": "[1]; daily oral, over the dose range", "value": "comparable to that achieved with pioglitazone and rosiglitazone"}, {"measurement": "serum liver enzymes (ALT, AST, SDH)", "setting": "[1]; doses ranging from 30 mg/kg/day to 300 mg/kg/day", "value": "dose-dependent decrease"}, {"measurement": "weight gain relative to vehicle-treated mice", "setting": "[1]; four week treatment period, over the dose range", "value": "dose-dependent attenuation of weight gain"}, {"measurement": "change in vivo at 250 mg/kg", "setting": "[2]", "value": "-53.1 ± 3.1", "unit": "%"}]}
{"smiles": "O=C(O)CCC(=O)c1ccc(OCc2ccccc2F)cc1", "note": "[Compound AA, 4-(4-(2-Fluorobenzyloxy)phenyl)-4-oxobutyric acid]", "values": [{"measurement": "cumulative mortality (mice died)", "setting": "[3]", "value": "5/20"}]}
{"smiles": "Cc1cccc(C)c1COc1cccc(C(=O)CCC(=O)O)c1", "note": "[Compound BI, 4-(3-(2,6-Dimethylbenzyloxy)phenyl)-4-oxobutyric acid]", "values": [{"measurement": "insulin serum levels (FIG. 1)", "setting": "[4]", "value": "effective at lowering"}, {"measurement": "leptin serum levels (FIG. 2)", "setting": "[4]", "value": "effective at lowering"}, {"measurement": "free fatty acids", "setting": "[5]", "value": "reduced"}]}
{"smiles": "Cc1cccc(C)c1COc1cccc(C(=O)CCC(=O)[O-])c1.[Na+]", "note": "[Compound BL, 4-(3-(2,6-Dimethylbenzyloxy)phenyl)-4-oxobutyric acid Sodium salt]", "values": [{"measurement": "insulin serum levels (FIG. 1)", "setting": "[4]", "value": "effective at lowering"}, {"measurement": "leptin serum levels (FIG. 2)", "setting": "[4]", "value": "effective at lowering"}]}
{"smiles": "O=C(O)CCC(=O)c1ccc(OCc2c(F)cccc2F)cc1", "note": "[Compound AH, 4-(4-(2,6-Difluorobenzyloxy)phenyl)-4-oxobutyric acid]", "values": [{"measurement": "Survivors (Survival at 12 weeks)", "setting": "[6]; STZ 175 mg/kg i.p. mice, daily oral gavage 250 mg/kg/day", "value": "Four of the five"}, {"measurement": "body weights of survivors", "setting": "[6]; at 12 weeks, 250 mg/kg/day oral", "value": "recovered and were maintained in the normal range"}, {"measurement": "blood glucose concentrations", "setting": "[7]", "value": "began to decrease toward baseline"}]}
